Measurements published in patent US20160040251A1, “BIOMARKERS FOR THE IDENTIFICATION OF CHEMOSENSITIVITY” (PHARMACYCLICS, LLC, priority 2013, published 2016).
pIC50: −log10 of the molar value.

Assays:
[1] = tested on: breast cancer cell lines (BCLs); test: MTS cell viability assay in breast cancer cell lines; type: cell-based, human; conditions: for drug-response profiles of BCLs (high- or low-dose sensitive) versus abexinostat profiles: other HDACi compounds; for drug-response profiles of BCLs (high- or low-dose sensitive) versus abexinostat profiles / pIC50: 72 h; for pIC50: Homo sapiens, 72 h treatment, MTS
Procedure: A large series of cell lines (16 BCLs) were exposed to increasing concentrations (150 nM-2.5 μM) of the abexinostat, for 72 hours. These series represent all the molecular diversity observed in breast cancers.
Cell lines. A total of 16 breast cancer cell lines (BCLs) were used for the study. HCC1500, HCC1937, HCC1954, Hs 578T, MCF7, MDA-MB-134, MDA-MB-231, MDA-MB-361, MDA-MB-436, […] were obtained from American type culture collection (http://www.atcc.org/). SUM149 and SUM159 were obtained from Dr S.
Ethier's (Karmanos Cancer Center, Detroit, Mich., USA). S68 was obtained from Dr V. Castros (University de Rennes, France) and Br-Ca-MZ-01 from Dr V. Möbus (University of Ulm, Germany). All BCLs tested were derived from carcinomas. BCLs were grown using the recommended culture conditions (Neve et al, Cancer Cell 2006).
Drugs. BCLs were continuously treated for 72h in adherent conditions with Histone Deacetylase Inhibitors (HDACi): abexinostat, SAHA and valproic acid. For experiments abexinostat was prepared in a 23,1 mM stock solution, SAHA in a 0.5M stock solution, in Dimethyl Sulfoxide (DMSO) and stored at −20° C. Valproic acid was prepared in a 1M stock solution in Phosphate Buffered Saline (PBS) and stored at 4° C. For experiments, cells were treated with respective IC50s. DMSO or PBS were used as vehicle control (C<0.1%).
Cell viability. Inhibitory Concentrations 50 (IC50s) were evaluated using 3-(4,5-dimethylthiazol-2-yl)-5-(3-carboxymethoxyphenyl)-2-(4-sulfophenyl)-2H-tetrazolium (MTS) assay. BCLs were plated in adherent condition in 96-well plates at 5,000 cells per well; except for SUM159 plated at 1,000 cells per well. After 24 h, treatment with serial dilutions of HDACi was started. The effect of treatment on cell viability was estimated after 72 h by addition of 100 μL MTS solution (5 mg/mL in PBS) in each well. Cells were then incubated for 1 h at 37° C. Absorbance was measured at 540 nm in a fluorescence plate reader.

[2] = tested on: ALDEFLUOR-positive CSC population of PDXs CRCM226X, CRCM392X, CRCM389X; test: ALDEFLUOR assay on residual PDX tumors; type: in vivo, NOD/SCID mice; conditions: after three weeks of treatment
Procedure: (§1) Animal models Cells from these PDXs were transplanted orthotopically into fat pads of NOD/SCID mice without cultivation in vitro. Single cancer cells (1,000,000 cells CRCM226X and CRCM389X, 125,000 cells CRCM392X) are injected into fat pads of NOD/SCID mice and tumor growth are monitored. When the tumor size was approximately 150 mm^3, treatment is started with abexinostat (i.p, 12.5 mg/Kg, twice a day, 5 out of 7 days for three weeks) or docetaxel (10 mg/kg weekly for three weeks) or placebo.
(§2) Six mice were injected for each PDX and for each group. After 1, 2 and 3 weeks of treatment, two mice from each group were sacrificed according to ethic statements. Tumors were dissociated and cells were analyzed for the ALDEFLUOR phenotype and tumorsphere formation capacity. Cells from 3-week treated mice were reimplanted into secondary NOD/SCID mice with injection of 1,000 cells for each treated tumor.
ALDEFLUOR assay The ALDEFLUOR kit (Stem Cell Technologies) was used to isolate the population with high aldehyde dehydrogenase (ALDH) enzymatic activity using an LSR2 cytometer as previously described (Ginestier et al, Cell Stem Cell, 2007). For BCLs cultivated in adherent condition, ALDEFLUOR-positive populations were evaluated after 72-hour treatment with HDACi (IC50s) or vehicle. Primary human xenografts CRCM226X, CRCM389X and CRCM392X were harvested on the 3rd week of treatment with abexinostat, docetaxel or placebo, dissociated and stained for ALDEFLUOR analysis. To eliminate cells of mouse origin from the xenotransplanted tumors, staining with an anti-H2K^d biotin antibody (1/200; BD Biosciences) followed by staining with a secondary antibody labeled with streptavidin e450 (1/200; eBioscience) was used.

[3] = tested on: patient-derived xenografts CRCM226X, CRCM392X, CRCM389X; test: Tumor growth of patient-derived xenografts under treatment; type: in vivo, NOD/SCID mice; conditions: abexinostat i.p. 12.5 mg/Kg twice a day 5 of 7 days, docetaxel 10 mg/kg weekly, three weeks
Source text: To confirm the impact of abexinostat treatment on the CSC population from breast cancers with low XIST expression, three different patient-derived xenografts (PDXs) with distinct Xist expression level (CRCM226X, Xist^low; CRCM392X, Xist^med; CRCM389X, Xist^high) were utilized.
as §1, §2

[4] = tested on: patient-derived xenografts CRCM226X, CRCM392X, CRCM389X; test: Reimplantation of cells from treated PDXs into secondary mice (tumorigenicity); type: in vivo, NOD/SCID mice
Procedure: as §2
Tumor growth was compared with that of placebo-treated controls. An inhibition of the CRCM226X (Xist^low) PDX growth after abexinostat and docetaxel treatment was observed. […] After three weeks of treatment, the animals were sacrificed and the proportion of ALDEFLUOR-positive CSCs was measured in each residual tumor (FIG. 6B). All PDX models presented an increase in the ALDEFLUOR-positive population isolated from docetaxel-treated tumors compared to the untreated control. […] Tumorigenicity is directly related to the presence of CSCs and this assay gives an estimate of the proportion of residual tumorigenic CSCs. For each treatment condition (placebo, abexinostat, docetaxel), 1,000 cells isolated from treated-tumors were reimplanted.

[5] = CRCM226X (Xist low), 1,000 cells from 3-week treated tumors reimplanted
[6] = CRCM389X (Xist high), 1,000 cells from 3-week treated tumors reimplanted
[7] = CRCM392X (Xist med), 1,000 cells from 3-week treated tumors reimplanted

pIC50 ([1]; nine BCLs sensitive to low-dose)	pIC50 ([1]; seven BCLs sensitive to high-dose)	Compound	drug-response profiles of BCLs (high- or low-dose sensitive) versus abexinostat profiles [1]	ALDEFLUOR-positive population versus untreated control ([2]; CRCM226X (Xist low))	ALDEFLUOR-positive population versus untreated control ([2]; CRCM389X (Xist high))	ALDEFLUOR-positive population versus untreated control ([2]; CRCM392X (Xist med))	PDX tumor growth versus placebo ([3]; CRCM226X (Xist low))	PDX tumor growth versus placebo ([3]; CRCM389X (Xist high))	PDX tumor growth versus placebo ([3]; CRCM392X (Xist med))	drug-response profile compared to abexinostat profile ([1]; conventional chemotherapeutic agent, BCLs)	tumor regrowth after reimplantation versus placebo-treated [4, 5]	tumor regrowth after reimplantation versus placebo-treated [4, 6]	tumor regrowth after reimplantation versus placebo-treated [4, 7]
		CCCC(CCC)C(=O)O [Valproic Acid, valproic acid]	confirmed										
		O=C(CCCCCCC(=O)Nc1ccccc1)NO [SAHA, vorinostat]	confirmed										
		CC(=O)O[C@@]12CO[C@@H]1C[C@H](O)[C@@]1(C)C(=O)[C@H](O)C3=C(C)[C@@H](OC(=O)[C@H](O)[C@@H](NC(=O)OC(C)(C)C)c4ccccc4)C[C@@](O)([C@@H](OC(=O)c4ccccc4)[C@H]21)C3(C)C [docetaxel]		increase	increase	increase	inhibition	no or discrete effect	no or discrete effect	totally distinct	tumor regrowth comparable to placebo-treated tumors	tumor regrowth comparable to placebo-treated tumors	tumor regrowth comparable to placebo-treated tumors
6.34 to 6.77	< 6.15	CN(C)Cc1c(C(=O)NCCOc2ccc(C(=O)NO)cc2)oc2ccccc12 [abexinostat]		two-fold decrease	increase	two-fold decrease	inhibition	no or discrete effect	no or discrete effect		incapacity to regenerate a tumor	higher regrowth kinetic	delay in tumor regrowth
